Measured values: patent US20100120752A1, “MUSCARINIC AGONISTS TO TREAT IMPULSE CONTROL DISORDERS” (Solvay Pharmaceuticals, B.V., priority 2007, published 2010)

What was measured:
Type in all cases: in vivo, rat
[1] = system: Male Wistar rats; test: 5-Choice Serial Reaction Time task, xanomeline or desmethylclozapine alone; conditions: for number of anticipatory responses / number of correct responses / number of fault responses / number of missed responses / percentage of correct responses / persevering responses / total number of responses: ±S.E.M.
Description: (§1) Male Wistar rats weighing 330-450 g (Harlan, The Netherlands) were housed in pairs under a 12-h light/dark cycle (lights off at 7:00 a.m.) and had daily access to a limited amount of food that kept their body weight at approximately 85% of the free feeding weight. Water was available ad libitum. All procedures were in compliance with the European Communities Council Directive of Nov. 24, 1986 (86/609 EEC).
(§2) Standard 5-CSRT boxes from MED associates Inc. Georgia, Vt. US were used. The curved wall of the chamber contained five 1.6 cm2 holes, 2.2 cm deep, 2 cm above floor level. […] In every hole a yellow stimulus light was presented. A food dispenser was located at the opposite wall. The box was illuminated by a 28 Volt 100 mA house light. The 5-CSRT boxes were placed in sound attenuating cubicles. On-line control of the apparatus and data collection were performed by a MED-PC experimental apparatus programming system (Tatham, 1989), running on a Dell Optiplex GX1 PC.
(§3) Rats were first trained to collect reinforcement pellets from the food dispenser and to collect reinforcements that were placed in the 5 holes in order to habituate the animals to the 5-CSRT task apparatus. Next, training of the 5-CSRT task started. These sessions started by illumination of the light in one of the holes for 30 seconds (stimulus duration). A response by the rat into the illuminated hole or a response in that particular hole for a short period of time after the illumination (the limited hold 60 sec) was rewarded with the delivery of a food pellet, termination of the trial and a correct response was recorded. The light stimulus was presented in each of the holes 20 times during a session (total of 100 presentations), and the order of presentations was randomized. […] After termination of the trial a variable inter-trial interval was started (1, 3, 5, 7 or 9 sec) after which the next trial was started. Upon reaching a 75% correct performance level the duration of illumination of the light stimulus was reduced until a presentation of 0.5 sec (from 30 to 20, 10, 5, 2, 1, 0.9; 0.8; 0.7; 0.6; 0.5.) and a limited hold of 5 sec (in three steps from 30 to 20, 10 and 5 sec), was reached. (Robbins, 1993).
(§4) The following parameters were measured (Muir, 1996):
(§5) Accuracy: the percentage correct responses divided by the total responses made.
(§6) Errors of omission: the number of missed stimulus presentations.
(§7) Correct responses: the number of correct responses.
(§8) Fault responses: the number of responses in the wrong hole.
(§9) Anticipatory responses: the number of premature responses made preceding the presentation of the light stimulus.
(§10) Persevering responses: responses emitted after an incorrect or correct response.
Xanomeline, a mixed muscarine-M1 and muscarine-M4 agonist, and desmethylclozapine, a muscarinic-M1 agonist and muscarinic-M4 antagonist, were each tested in a Latin hexagon design, meaning that each rat received all test-dosages (0, 1, 3 and 10 mg/kg i.p.) in a random order.

[2] = system: MK801 induced increase of anticipatory responses of rats; test: 5-Choice Serial Reaction Time task, interaction studies against MK801
Description: as §1, §2, §3, §4, §5, §6, §7, §8, §9, §10
Both xanomeline and desmethylclozapine were each tested in the same dose range against 0.05 mg/kg (s.c.) MK801, a dose shown to elicit unequivocal impulsive behavior (see Table 1).

[3] = system: Male Wistar rats; test: 5-Choice Serial Reaction Time task, MK801 alone; conditions: for number of anticipatory responses / number of correct responses / number of fault responses / number of missed responses / percentage of correct responses / persevering responses / total number of responses: ±S.E.M.
Description: as §1, §2, §3, §4, §5, §6, §7, §8, §9, §10
MK801 was tested in a Latin hexagon design, meaning that each rat received all test dosages (0, 0.01, 0.025 and 0.05 mg/kg s.c.) in a random order.

[4] = 1 mg/kg against 0.05 mg/kg (s.c.) MK801, ±SEM
[5] = 3 mg/kg against 0.05 mg/kg (s.c.) MK801, ±SEM
[6] = 10 mg/kg against 0.05 mg/kg (s.c.) MK801, ±SEM
[7] = evident at 0.025 mg/kg and 0.05 mg/kg, p<0.05
[8] = first series, MK801 0.01 mg/kg s.c.
[9] = first series, MK801 0.025 mg/kg s.c.
[10] = first series, MK801 0.05 mg/kg s.c.
[11] = second series, MK801 0.01 mg/kg s.c.
[12] = second series, MK801 0.025 mg/kg s.c.
[13] = second series, MK801 0.05 mg/kg s.c.
[14] = 0.05 mg/kg (s.c.) MK801 with 0 mg/kg desmethylclozapine, ±SEM
[15] = 0.05 mg/kg (s.c.) MK801 with 0 mg/kg xanomeline, ±SEM

In the case of `CCCCCCOc1nsnc1C1=CCCN(C)C1` [xanomeline], the “number of anticipatory responses” value ([1]; 1 mg/kg i.p.) is reported as 58.0 ± 7.9, the “number of correct responses” value ([1]; 1 mg/kg i.p.) is reported as 53.0 ± 2.4 and the “number of fault responses” value ([1]; 1 mg/kg i.p.) is reported as 22.7 ± 1.6. The “number of missed responses” value ([1]; 1 mg/kg i.p.) was 24.3 ± 2.4, the “percentage of correct responses” value ([1]; 1 mg/kg i.p.) was 70.0 ± 2.1% and the persevering responses ([1]; 1 mg/kg i.p.) was 6.3 ± 1.1. For the same compound, the “total number of responses” value ([1]; 1 mg/kg i.p.) was 75.1 ± 2.4, the “number of anticipatory responses” value ([1]; 3 mg/kg i.p.) was 60.8 ± 4.9 and the “number of correct responses” value ([1]; 3 mg/kg i.p.) was 51.2 ± 2.5. The “number of fault responses” value ([1]; 3 mg/kg i.p.) was 21.7 ± 1.8, the “number of missed responses” value ([1]; 3 mg/kg i.p.) was 27.2 ± 2.2 and the “percentage of correct responses” value ([1]; 3 mg/kg i.p.) was 70.2 ± 2.5%. For the same compound, the persevering responses ([1]; 3 mg/kg i.p.) was 6.7 ± 1.4, the “total number of responses” value ([1]; 3 mg/kg i.p.) was 72.8 ± 2.2 and the “number of anticipatory responses” value ([1]; 10 mg/kg i.p.) was 21.5 ± 6.4. For the same compound, the “number of correct responses” value ([1]; 10 mg/kg i.p.) was 37.2 ± 2.6, the “number of fault responses” value ([1]; 10 mg/kg i.p.) was 15.0 ± 1.8 and the “number of missed responses” value ([1]; 10 mg/kg i.p.) was 46.8 ± 3.7. The “percentage of correct responses” value ([1]; 10 mg/kg i.p.) was 72.1 ± 2.3%, the persevering responses ([1]; 10 mg/kg i.p.) was 4.9 ± 0.9 and the “total number of responses” value ([1]; 10 mg/kg i.p.) was 53.2 ± 3.7. For the same compound, the “effect on number of anticipatory responses” value ([1]; at 10 mg/kg, table 2) was “reduced”, the “% correct resp” value [2, 4] was 70.2 ± 3.8% and the nr anticipatory resp [2, 4] was 75.3 ± 10.5. For the same compound, the “nr of correct resp” value [2, 4] was 58.7 ± 4.4, the “nr of fault resp” value [2, 4] was 23.8 ± 2.4 and the “nr of missed resp” value [2, 4] was 17.6 ± 3.1. The persevering resp [2, 4] was 15.3 ± 2.5, the “total nr of resp” value [2, 4] was 82.4 ± 3.1 and the “% correct resp” value [2, 5] was 71.6 ± 2.4%. For the same compound, the nr anticipatory resp [2, 5] was 99.3 ± 11.1, the “nr of correct resp” value [2, 5] was 57.4 ± 2.7 and the “nr of fault resp” value [2, 5] was 22.7 ± 1.9. The “nr of missed resp” value [2, 5] was 19.9 ± 2.4, the persevering resp [2, 5] was 14.1 ± 3.5 and the “total nr of resp” value [2, 5] was 80.1 ± 2.4. For the same compound, the “% correct resp” value [2, 6] was 74.4 ± 2.8%, the nr anticipatory resp [2, 6] was 47.5 ± 8.4 and the “nr of correct resp” value [2, 6] was 50.9 ± 2.4. The “nr of fault resp” value [2, 6] was 18.0 ± 2.2, the “nr of missed resp” value [2, 6] was 31.1 ± 3.0 and the persevering resp [2, 6] was 8.5 ± 1.1. The “total nr of resp” value [2, 6] was 68.9 ± 3.0, the “effect on increase in anticipatory responses induced by MK801” value ([2]; table 3) was “antagonize” and the “effect on increase in persevering responses induced by MK801” value ([2]; table 3) was “antagonize”.

With `CC12NC(Cc3ccccc31)c1ccccc12` (centres unmarked) [MK801, dizocilpine] the “effect on missed responses” value [3, 7] was “decreased”, the “effect on number of anticipatory responses” value [3, 7] was “boosted” and the “effect on persevering responses” value [3, 7] was “boosted”. The “effect on total number of responses” value [3, 7] was “boosted”, the “number of anticipatory responses” value [3, 8] was 51.3 ± 5.4 and the “number of correct responses” value [3, 8] was 52.6 ± 3.3. For the same compound, the “number of fault responses” value [3, 8] was 19.8 ± 2.2, the “number of missed responses” value [3, 8] was 27.7 ± 3.3 and the “percentage of correct responses” value [3, 8] was 72.6 ± 2.8%. For the same compound, the persevering responses [3, 8] was 7.9 ± 1, the “total number of responses” value [3, 8] was 72.3 ± 3.3 and the “number of anticipatory responses” value [3, 9] was 73.2 ± 8.7. For the same compound, the “number of correct responses” value [3, 9] was 53.8 ± 3.9, the “number of fault responses” value [3, 9] was 22.6 ± 2.7 and the “number of missed responses” value [3, 9] was 23.6 ± 2.9. For the same compound, the “percentage of correct responses” value [3, 9] was 70.0 ± 3.7%, the persevering responses [3, 9] was 17.7 ± 4.1 and the “total number of responses” value [3, 9] was 76.4 ± 2.9. The “number of anticipatory responses” value [3, 10] was 148.6 ± 38.6, the “number of correct responses” value [3, 10] was 55.3 ± 3.2^ and the “number of fault responses” value [3, 10] was 26.0 ± 2.7^. The “number of missed responses” value [3, 10] was 18.7 ± 3.1, the “percentage of correct responses” value [3, 10] was 68.0 ± 3% and the persevering responses [3, 10] was 28.2 ± 4.7. The “total number of responses” value [3, 10] was 81.3 ± 3.1, the “number of anticipatory responses” value [3, 11] was 78.1 ± 14.8 and the “number of correct responses” value [3, 11] was 60.8 ± 2.1. The “number of fault responses” value [3, 11] was 21.8 ± 2.1, the “number of missed responses” value [3, 11] was 17.5 ± 2.1 and the “percentage of correct responses” value [3, 11] was 73.8 ± 2.3%. For the same compound, the persevering responses [3, 11] was 11.1 ± 3.1, the “total number of responses” value [3, 11] was 82.5 ± 2.1 and the “number of anticipatory responses” value [3, 12] was 97.3 ± 16.2. The “number of correct responses” value [3, 12] was 62.7 ± 2.9, the “number of fault responses” value [3, 12] was 21.8 ± 1.9 and the “number of missed responses” value [3, 12] was 15.6 ± 1.9. For the same compound, the “percentage of correct responses” value [3, 12] was 74.0 ± 2.5%, the persevering responses [3, 12] was 10.7 ± 1.7 and the “total number of responses” value [3, 12] was 84.4 ± 1.9. The “number of anticipatory responses” value [3, 13] was 148.3 ± 29.8, the “number of correct responses” value [3, 13] was 62.3 ± 2.9^ and the “number of fault responses” value [3, 13] was 23.3 ± 2.3^. For the same compound, the “number of missed responses” value [3, 13] was 14.5 ± 1.8, the “percentage of correct responses” value [3, 13] was 72.7 ± 2.6^ % and the persevering responses [3, 13] was 18.8 ± 4.2. For the same compound, the “total number of responses” value [3, 13] was 85.5 ± 1.8, the “effect on numbers of correct responses” value ([3]; summary of table 1) was “does not influence” and the “effect on numbers of fault responses” value ([3]; summary of table 1) was “does not influence”. For the same compound, the “% correct responses” value [2, 14] was 66.2 ± 3.8%, the nr anticipatory resp [2, 14] was 116.8 ± 19.9 and the “nr of correct resp” value [2, 14] was 53.8 ± 4.4. The “nr of fault resp” value [2, 14] was 25.9 ± 2.1, the “nr of missed resp” value [2, 14] was 20.3 ± 3.7 and the persevering resp [2, 14] was 20.2 ± 3.2. The “total nr of resp” value [2, 14] was 79.7 ± 3.7, the “% correct resp” value [2, 15] was 66.9 ± 3.5% and the nr anticipatory resp [2, 15] was 133.8 ± 23.5. The “nr of correct resp” value [2, 15] was 53.3 ± 3.9, the “nr of fault resp” value [2, 15] was 25.9 ± 2.7 and the “nr of missed resp” value [2, 15] was 20.8 ± 3.4. For the same compound, the persevering resp [2, 15] was 16.9 ± 2.6 and the “total nr of resp” value [2, 15] was 79.3 ± 3.4.
